Source: patent US7358359B2, “Antibacterial agents” (University of Washington, priority 2003, dated 2008)
In brackets after ≈: the same amount, converted by molar mass. Read-outs that look alike come from different tables or passages of the source.

Key:
Assay type in all cases: cell-based
[1] = system: Pseudomonas aeruginosa cystic fibrosis isolate 1145; assay: microbe, parasite or virus in culture; settings: strain 1145, MDR, read-out: MIC
Description: (§1) Bacterial isolates were cultivated from −70° C. frozen stocks by two consecutive overnight passages at 35° C. in ambient air on 5% blood agar (Remel, Lenexa, Kans.). Clinical isolates tested were from a collection composed of isolates collected during clinical trials and recent clinical isolates obtained from various geographically diverse hospitals in the US. Quality control and primary panel strains were from the American Type Culture Collection (ATCC; Rockville, Md.), with the exception of P. aeruginosa PAO200, a strain with a deletion of the mexABoprM genes that was received from Dr. H. Schweizer.
(§2) Minimum Inhibitory Concentrations (MICs) were determined by the broth microdilution method in accordance with the National Committee for Clinical Laboratory Standards (NCCLS) guidelines. In brief, organism suspensions were are adjusted to a 0.5 McFarland standard to yield a final inoculum between 3×10^5 and 7×10^5 colony-forming units (CFU)/mL. Drug dilutions and inocula were made in sterile, cation adjusted Mueller-Hinton Broth (Remel). An inoculum volume of 100 μl was added to wells containing 100 μl of broth with 2-fold serial dilutions of drug. All inoculated microdilution trays were incubated in ambient air at 35° C. for 18-24 hours. Following incubation, the lowest concentration of the drug that prevented visible growth was recorded as the MIC.

[2] = system: Pseudomonas aeruginosa cystic fibrosis isolate 3206; assay: microbe, parasite or virus in culture; settings: strain 3206, MDR, LpxC inhibitors, MIC key class, read-out: MIC
Description: as §1, §2

Enterobacter cloacae = assay: MIC vs enteric organisms: Enterobacter cloacae; settings: E. clo.
Description: as §1, §2

Burkholderia cepacia = assay: MIC vs non-fermenting organisms: Burkholderia cepacia; settings: B. cepacia
Description: as §1, §2

Serratia marcescens = assay: MIC vs enteric organisms: Serratia marcescens; settings: S. marc.
Description: as §1, §2

[3] = system: Pseudomonas aeruginosa cystic fibrosis isolate 3232; assay: MIC vs cystic fibrosis isolate of P. aeruginosa 3232 (Ceftaz. R); settings: strain 3232, Ceftaz. R
[4] = system: Pseudomonas aeruginosa cystic fibrosis isolate 2196; assay: MIC vs cystic fibrosis isolate of P. aeruginosa 2196 (resistant to ciprofloxacin); settings: strain 2196, Cipro R
Description: as §1, §2

[5] = system: Acinetobacter calcoaceticus; assay: MIC vs non-fermenting organisms: Acinetobacter calcoaceticus; settings: Acinet. calc.
Description: as §1, §2

[6] = system: non-CF clinical isolates of P. aeruginosa; assay: MIC vs non-CF clinical isolates of P. aeruginosa; settings: Pseudomonas aeruginosa
Description: as §1, with “Schweizer. […] Strain Z61 (ATCC 35151) is also hypersusceptible to antibacterials. It is thought that the hypersusceptibility of this strain is the result of increased permeability of its outer membrane (Angus B L et al, Antimicrobial Agents and Chemotherapy 1982 21,299-309: Outer membrane permeability in Pseudomonas aeruginosa: Comparison of a wild-type with an antibacterial-supersusceptible mutant).” for “Schweizer.”
as §2, with “MIC. Performance of the assay was monitored by the use of laboratory quality-control strains against tobramycin, that has a defined MIC spectrum, in accordance with NCCLS guidelines.” for “MIC.”

E. coli 25922 = assay: MIC broth microdilution, standard panel: E. coli 25922; settings: Escherichia coli, standard panel of organisms
Description: as §1, with “Schweizer. […] Strain Z61 (ATCC 35151) is also hypersusceptible to antibacterials. It is thought that the hypersusceptibility of this strain is the result of increased permeability of its outer membrane (Angus B L et al, Antimicrobial Agents and Chemotherapy 1982 21,299-309: Outer membrane permeability in Pseudomonas aeruginosa: Comparison of a wild-type with an antibacterial-supersusceptible mutant).” for “Schweizer.”
as §2, with “MIC. Performance of the assay was monitored by the use of laboratory quality-control strains against tobramycin, that has a defined MIC spectrum, in accordance with NCCLS guidelines.” for “MIC.”

Alcaligenes xylosoxidans = assay: MIC vs non-fermenting organisms: Alcaligenes xylosoxidans; settings: Achromobacter xylosoxidans, Alcal. xyl
Description: as §1, §2

Klebsiella pneumoniae = assay: MIC vs enteric organisms: Klebsiella pneumoniae; settings: K. pneu.
Description: as §1, §2

Enterobacter aerogenes = assay: MIC vs enteric organisms: Enterobacter aerogenes; settings: Klebsiella aerogenes, E. aer.
Description: as §1, §2

Klebsiella oxytoca = assay: MIC vs enteric organisms: Klebsiella oxytoca; settings: K. oxy.
Description: as §1, §2

S. aureus 29213 = assay: MIC broth microdilution, standard panel: S. aureus 29213; settings: Staphylococcus aureus, standard panel of organisms
Description: as §1, with “Schweizer. […] Strain Z61 (ATCC 35151) is also hypersusceptible to antibacterials. It is thought that the hypersusceptibility of this strain is the result of increased permeability of its outer membrane (Angus B L et al, Antimicrobial Agents and Chemotherapy 1982 21,299-309: Outer membrane permeability in Pseudomonas aeruginosa: Comparison of a wild-type with an antibacterial-supersusceptible mutant).” for “Schweizer.”
as §2, with “MIC. Performance of the assay was monitored by the use of laboratory quality-control strains against tobramycin, that has a defined MIC spectrum, in accordance with NCCLS guidelines.” for “MIC.”

Proteus mirabilis = assay: MIC vs enteric organisms: Proteus mirabilis; settings: P. mir.
Description: as §1, §2

[7] = system: Stenotrophomonas maltophilia; assay: MIC vs non-fermenting organisms: Stenotrophomonas maltophilia; settings: Stenotrophomonas maltophilia, S. malt., read-out: MIC
Description: as §1, §2

[8] = system: Pseudomonas aeruginosa cystic fibrosis isolate 3224; assay: MIC vs cystic fibrosis isolate of P. aeruginosa 3224; settings: strain 3224, Tobra R
Description: as §1, §2

P. aeruginosa 27853 = assay: MIC broth microdilution, standard panel: P. aeruginosa 27853; settings: Pseudomonas aeruginosa, standard panel of organisms
Description: as §1, with “Schweizer. […] Strain Z61 (ATCC 35151) is also hypersusceptible to antibacterials. It is thought that the hypersusceptibility of this strain is the result of increased permeability of its outer membrane (Angus B L et al, Antimicrobial Agents and Chemotherapy 1982 21,299-309: Outer membrane permeability in Pseudomonas aeruginosa: Comparison of a wild-type with an antibacterial-supersusceptible mutant).” for “Schweizer.”
as §2, with “MIC. Performance of the assay was monitored by the use of laboratory quality-control strains against tobramycin, that has a defined MIC spectrum, in accordance with NCCLS guidelines.” for “MIC.”

[9] = system: Pseudomonas aeruginosa cystic fibrosis isolate 3236; assay: MIC vs cystic fibrosis isolate of P. aeruginosa 3236 (sensitive to most antibacterials); settings: strain 3236, Sensitive
Description: as §1, §2

Escherichia coli = assay: MIC vs enteric organisms: Escherichia coli clinical isolates
Description: as §1, §2

[10] = system: P. aeruginosa PAO200 mexAB; assay: MIC broth microdilution, standard panel: P. aeruginosa PAO200 mexAB; settings: Pseudomonas aeruginosa, PAO200MEXAB, read-out: MIC P. aeruginosa PAO200 mexAB
Description: as §1, with “Schweizer. […] Strain Z61 (ATCC 35151) is also hypersusceptible to antibacterials. It is thought that the hypersusceptibility of this strain is the result of increased permeability of its outer membrane (Angus B L et al, Antimicrobial Agents and Chemotherapy 1982 21,299-309: Outer membrane permeability in Pseudomonas aeruginosa: Comparison of a wild-type with an antibacterial-supersusceptible mutant).” for “Schweizer.”
as §2, with “MIC. Performance of the assay was monitored by the use of laboratory quality-control strains against tobramycin, that has a defined MIC spectrum, in accordance with NCCLS guidelines.” for “MIC.”

[11] = system: Pseudomonas aeruginosa cystic fibrosis isolate 3198; assay: MIC vs cystic fibrosis isolate of P. aeruginosa 3198 (sensitive to most antibacterials); settings: strain 3198, Sensitive
Description: as §1, §2

[12] = system: Pseudomonas aeruginosa cystic fibrosis isolate 3317; assay: MIC vs cystic fibrosis isolate of P. aeruginosa 3317 (resistant to aztreonam); settings: strain 3317, Aztr. R
Description: as §1, §2

[13] = Burkholderia cepacia, comparator antibacterials, read-out: MIC
[14] = P. aer 12307, comparator antibacterials
[15] = P. aer psa-6b, comparator antibacterials

NC[C@H](NC(=O)c1ccc(C#Cc2ccccc2)cc1)C(=O)NO [Example 366, N-[(1S)-1-(aminomethyl)-2-(hydroxyamino)-2-oxoethyl]-4-(phenylethynyl)benzamide]
MIC ([1]; LpxC inhibitors, MIC key class): < 6.25 µg/mL | MIC [2]: < 6.25 µg/mL | MIC (Enterobacter cloacae; MIC key class): < 6.25 µg/mL | MIC (Burkholderia cepacia; Burkholderia cepacia, MIC key class, read-out: MIC): 6.25 to 50 µg/mL (≈ 19.3 to 155 µM) | MIC (Serratia marcescens; MIC key class): < 6.25 µg/mL | MIC ([3]; LpxC inhibitors, MIC key class): < 6.25 µg/mL | MIC ([4]; LpxC inhibitors, MIC key class): < 6.25 µg/mL | MIC ([5]; MIC key class): > 50 µg/mL | MIC ([6]; P. aer 12307, MIC key class): < 6.25 µg/mL | MIC ([6]; P. aer 27853, MIC key class): < 6.25 µg/mL | MIC ([6]; P. aer psa-6b, MIC key class): 6.25 to 50 µg/mL (≈ 19.3 to 155 µM) | MIC ([6]; PAO1, P. aer. PAO1, MIC key class): < 6.25 µg/mL | MIC (E. coli 25922): < 6.25 µg/mL | MIC (Alcaligenes xylosoxidans; MIC key class): < 6.25 µg/mL | MIC (Klebsiella pneumoniae; MIC key class): 6.25 to 50 µg/mL (≈ 19.3 to 155 µM) | MIC (Enterobacter aerogenes; MIC key class): > 50 µg/mL | MIC (Klebsiella oxytoca; MIC key class): 6.25 to 50 µg/mL (≈ 19.3 to 155 µM) | MIC (S. aureus 29213): > 50 µg/mL | MIC (Proteus mirabilis; MIC key class): < 6.25 µg/mL | MIC ([7]; MIC key class): 6.25 to 50 µg/mL (≈ 19.3 to 155 µM) | MIC ([8]; LpxC inhibitors, MIC key class): < 6.25 µg/mL | MIC (P. aeruginosa 27853): < 6.25 µg/mL | MIC ([9]; LpxC inhibitors, MIC key class): < 6.25 µg/mL | MIC (Escherichia coli; Escherichia coli, E. coli 1619, MIC key class, read-out: MIC): < 6.25 µg/mL | MIC (Escherichia coli; Escherichia coli, E. coli 2788, MIC key class, read-out: MIC): < 6.25 µg/mL | MIC [10]: < 6.25 µg/mL | MIC ([11]; LpxC inhibitors, MIC key class): < 6.25 µg/mL | MIC ([12]; LpxC inhibitors, MIC key class): < 6.25 µg/mL

C[C@@H](O)[C@H]1C(=O)N2C(C(=O)O)=C(S[C@@H]3CN[C@H](C(=O)N(C)C)C3)[C@H](C)[C@H]12 [Meropenem, meropenem, reference compound]
MIC (Enterobacter cloacae; comparator antibacterials): ≤ 0.06 µg/mL | MIC (Burkholderia cepacia; [13]): 4 µg/mL (≈ 10.4 µM) | MIC (Serratia marcescens; comparator antibacterials): 0.13 µg/mL (≈ 0.339 µM) | MIC ([5]; comparator antibacterials): 4 µg/mL (≈ 10.4 µM) | MIC [6, 14]: 0.5 µg/mL (≈ 1.3 µM) | MIC [6, 15]: 0.25 µg/mL (≈ 0.652 µM) | MIC (Alcaligenes xylosoxidans; comparator antibacterials): 0.5 µg/mL (≈ 1.3 µM) | MIC (Klebsiella pneumoniae; comparator antibacterials): 0.13 µg/mL (≈ 0.339 µM) | MIC (Enterobacter aerogenes; comparator antibacterials): 2 µg/mL (≈ 5.22 µM) | MIC (Klebsiella oxytoca; comparator antibacterials): ≤ 0.06 µg/mL | MIC (Proteus mirabilis; comparator antibacterials): 0.5 µg/mL (≈ 1.3 µM) | MIC ([7]; comparator antibacterials): 64 µg/mL (≈ 167 µM) | MIC (Escherichia coli; E. coli 1619, comparator antibacterials): 0.13 µg/mL (≈ 0.339 µM) | MIC (Escherichia coli; Escherichia coli, E. coli 1619, comparator antibacterials, read-out: MIC): 0.25 µg/mL (≈ 0.652 µM) | MIC (Escherichia coli; Escherichia coli, E. coli 2788, comparator antibacterials, read-out: MIC): ≤ 0.06 µg/mL

NC[C@H]1O[C@H](O[C@H]2[C@H](O)[C@@H](O[C@H]3O[C@H](CO)[C@@H](O)[C@H](N)[C@H]3O)[C@H](N)C[C@@H]2N)[C@H](N)C[C@@H]1O [Tobramycin, tobramycin, reference compound]
MIC ([1]; comparator antibacterials): 8 to 32 µg/mL (≈ 17.1 to 68.4 µM) | MIC (Enterobacter cloacae; comparator antibacterials): 0.06 µg/mL (≈ 0.128 µM) | MIC (Burkholderia cepacia; comparator antibacterials): > 128 µg/mL | MIC (Burkholderia cepacia; [13]): 64 µg/mL (≈ 137 µM) | MIC (Serratia marcescens; comparator antibacterials): 2 µg/mL (≈ 4.28 µM) | MIC ([3]; comparator antibacterials): 1 µg/mL (≈ 2.14 µM) | MIC ([4]; comparator antibacterials): 2 µg/mL (≈ 4.28 µM) | MIC ([5]; comparator antibacterials): 2 µg/mL (≈ 4.28 µM) | MIC [6, 14]: 8 µg/mL (≈ 17.1 µM) | MIC [6, 15]: 2 µg/mL (≈ 4.28 µM) | MIC (Alcaligenes xylosoxidans; comparator antibacterials): 64 µg/mL (≈ 137 µM) | MIC (Klebsiella pneumoniae; comparator antibacterials): 64 µg/mL (≈ 137 µM) | MIC (Enterobacter aerogenes; comparator antibacterials): 64 µg/mL (≈ 137 µM) | MIC (Klebsiella oxytoca; comparator antibacterials): 1 µg/mL (≈ 2.14 µM) | MIC (Proteus mirabilis; comparator antibacterials): 2 µg/mL (≈ 4.28 µM) | MIC ([7]; comparator antibacterials): 0.5 µg/mL (≈ 1.07 µM) | MIC ([8]; comparator antibacterials): 64 µg/mL (≈ 137 µM) | MIC ([9]; comparator antibacterials): 0.5 µg/mL (≈ 1.07 µM) | MIC ([11]; comparator antibacterials): 2 µg/mL (≈ 4.28 µM) | MIC ([12]; comparator antibacterials): 2 µg/mL (≈ 4.28 µM)
